Measured values as given in patent US9271993B2, “Treatment of bacterial infectious diseases” (priority 2010, dated 2016).
Like-named read-outs stand apart in the source and are kept apart here.

What was measured:
[1] = tested on: clinical isolates of multidrug-resistant M. tuberculosis
[2] = tested on: clinical isolates of M. tuberculosis; format: cell-based

`CNC1C(OC2OC(CO)C(N)C(O)C2O)OC2CC(N)C(OC3C(N)CC(N)C(O)C3O)OC2C1O` (centres unmarked) [Apramycin] was tested, and the “Activity (resistant/susceptible)” value ([1]; strain 186002/10, 0.25 μg/ml) was “R”, the “Activity (resistant/susceptible)” value ([1]; strain 186002/10, 1 μg/ml) was “S” and the “Activity (resistant/susceptible)” value ([1]; strain 186002/10, 4 μg/ml) was “S”. The “Activity (resistant/susceptible)” value ([1]; strain 186002/10, 10 μg/ml) was “S”, the “Activity (resistant/susceptible)” value ([1]; strain 186005/09, 0.25 μg/ml) was “R” and the “Activity (resistant/susceptible)” value ([1]; strain 186005/09, 1 μg/ml) was “S”. The “Activity (resistant/susceptible)” value ([1]; strain 186005/09, 4 μg/ml) was “S”, the “Activity (resistant/susceptible)” value ([1]; strain 186005/09, 10 μg/ml) was “S” and the “Activity (resistant/susceptible)” value ([1]; strain 186010/09, 0.25 μg/ml) was “R”. For the same compound, the “Activity (resistant/susceptible)” value ([1]; strain 186010/09, 1 μg/ml) was “S”, the “Activity (resistant/susceptible)” value ([1]; strain 186010/09, 4 μg/ml) was “S” and the “Activity (resistant/susceptible)” value ([1]; strain 186010/09, 10 μg/ml) was “S”. The “Activity (resistant/susceptible)” value ([1]; strain 186013/09, 0.25 μg/ml) was “R”, the “Activity (resistant/susceptible)” value ([1]; strain 186013/09, 1 μg/ml) was “S” and the “Activity (resistant/susceptible)” value ([1]; strain 186013/09, 4 μg/ml) was “S”. The “Activity (resistant/susceptible)” value ([1]; strain 186013/09, 10 μg/ml) was “S”, the “Activity (resistant/susceptible)” value ([1]; strain 186014/09, 0.25 μg/ml) was “R” and the “Activity (resistant/susceptible)” value ([1]; strain 186014/09, 1 μg/ml) was “S”. The “Activity (resistant/susceptible)” value ([1]; strain 186014/09, 4 μg/ml) was “S”, the “Activity (resistant/susceptible)” value ([1]; strain 186014/09, 10 μg/ml) was “S” and the “Activity (resistant/susceptible)” value ([2]; strain 176949/08, 0.25 μg/ml) was “R”. For the same compound, the “Activity (resistant/susceptible)” value ([2]; strain 176949/08, 1 μg/ml) was “S”, the “Activity (resistant/susceptible)” value ([2]; strain 176949/08, 4 μg/ml) was “S” and the “Activity (resistant/susceptible)” value ([2]; strain 177581/08, 0.25 μg/ml) was “R”. For the same compound, the “Activity (resistant/susceptible)” value ([2]; strain 177581/08, 1 μg/ml) was “S”, the “Activity (resistant/susceptible)” value ([2]; strain 177581/08, 4 μg/ml) was “S” and the “Activity (resistant/susceptible)” value ([2]; strain 177712/08, 0.25 μg/ml) was “R”. The “Activity (resistant/susceptible)” value ([2]; strain 177712/08, 1 μg/ml) was “S”, the “Activity (resistant/susceptible)” value ([2]; strain 177712/08, 4 μg/ml) was “S” and the “Activity (resistant/susceptible)” value ([2]; strain 177809/08, 0.25 μg/ml) was “R”. The “Activity (resistant/susceptible)” value ([2]; strain 177809/08, 1 μg/ml) was “S”, the “Activity (resistant/susceptible)” value ([2]; strain 177809/08, 4 μg/ml) was “S” and the “Activity (resistant/susceptible)” value ([2]; strain 177958/08, 0.25 μg/ml) was “R”. The “Activity (resistant/susceptible)” value ([2]; strain 177958/08, 1 μg/ml) was “S”, the “Activity (resistant/susceptible)” value ([2]; strain 177958/08, 4 μg/ml) was “S” and the “Activity (resistant/susceptible)” value ([2]; strain 178122/08, 0.25 μg/ml) was “R”. For the same compound, the “Activity (resistant/susceptible)” value ([2]; strain 178122/08, 1 μg/ml) was “S”, the “Activity (resistant/susceptible)” value ([2]; strain 178122/08, 4 μg/ml) was “S” and the “Activity (resistant/susceptible)” value ([2]; strain 178242/08, 0.25 μg/ml) was “R”. For the same compound, the “Activity (resistant/susceptible)” value ([2]; strain 178242/08, 1 μg/ml) was “S”, the “Activity (resistant/susceptible)” value ([2]; strain 178242/08, 4 μg/ml) was “S” and the “Activity (resistant/susceptible)” value ([2]; strain 178331/08, 0.25 μg/ml) was “R”. The “Activity (resistant/susceptible)” value ([2]; strain 178331/08, 1 μg/ml) was “S”, the “Activity (resistant/susceptible)” value ([2]; strain 178331/08, 4 μg/ml) was “S” and the “Activity (resistant/susceptible)” value ([2]; strain 178557/08, 0.25 μg/ml) was “R”. For the same compound, the “Activity (resistant/susceptible)” value ([2]; strain 178557/08, 1 μg/ml) was “S”, the “Activity (resistant/susceptible)” value ([2]; strain 178557/08, 4 μg/ml) was “S” and the “Activity (resistant/susceptible)” value ([2]; strain 178594/08, 0.25 μg/ml) was “R”. For the same compound, the “Activity (resistant/susceptible)” value ([2]; strain 178594/08, 1 μg/ml) was “S” and the “Activity (resistant/susceptible)” value ([2]; strain 178594/08, 4 μg/ml) was “S”.
For `[H]/N=C(/N)N[C@H]1[C@H](O)[C@@H](O)[C@H](O[C@@H]2O[C@@H](C)[C@](O)(C=O)[C@H]2O[C@@H]2O[C@@H](CO)[C@H](O)[C@@H](O)[C@@H]2NC)[C@@H](N/C(N)=N\[H])[C@@H]1O` [Streptomycin], the “Activity (resistant/susceptible)” value ([2]; strain 176949/08, 0.25 μg/ml) was “S”, the “Activity (resistant/susceptible)” value ([2]; strain 176949/08, 1 μg/ml) was “S” and the “Activity (resistant/susceptible)” value ([2]; strain 176949/08, 4 μg/ml) was “S”. The “Activity (resistant/susceptible)” value ([2]; strain 177581/08, 0.25 μg/ml) was “S”, the “Activity (resistant/susceptible)” value ([2]; strain 177581/08, 1 μg/ml) was “S” and the “Activity (resistant/susceptible)” value ([2]; strain 177581/08, 4 μg/ml) was “S”. The “Activity (resistant/susceptible)” value ([2]; strain 177958/08, 0.25 μg/ml) was “R”, the “Activity (resistant/susceptible)” value ([2]; strain 177958/08, 1 μg/ml) was “S” and the “Activity (resistant/susceptible)” value ([2]; strain 177958/08, 4 μg/ml) was “S”. For the same compound, the “Activity (resistant/susceptible)” value ([2]; strain 178331/08, 0.25 μg/ml) was “R”, the “Activity (resistant/susceptible)” value ([2]; strain 178331/08, 1 μg/ml) was “S” and the “Activity (resistant/susceptible)” value ([2]; strain 178331/08, 4 μg/ml) was “S”. For the same compound, the “Activity (resistant/susceptible)” value ([2]; strain 178557/08, 0.25 μg/ml) was “R”, the “Activity (resistant/susceptible)” value ([2]; strain 178557/08, 1 μg/ml) was “S” and the “Activity (resistant/susceptible)” value ([2]; strain 178557/08, 4 μg/ml) was “S”.
With `NCC[C@H](O)C(=O)N[C@@H]1C[C@H](N)[C@@H](O[C@H]2O[C@H](CN)[C@@H](O)[C@H](O)[C@H]2O)[C@H](O)[C@H]1O[C@H]1O[C@H](CO)[C@@H](O)[C@H](N)[C@H]1O` [Amikacin] the “Activity (resistant/susceptible)” value ([2]; strain 176949/08, 0.25 μg/ml) was “R”, the “Activity (resistant/susceptible)” value ([2]; strain 176949/08, 1 μg/ml) was “S” and the “Activity (resistant/susceptible)” value ([2]; strain 176949/08, 4 μg/ml) was “S”. The “Activity (resistant/susceptible)” value ([2]; strain 177581/08, 0.25 μg/ml) was “R”, the “Activity (resistant/susceptible)” value ([2]; strain 177581/08, 1 μg/ml) was “S” and the “Activity (resistant/susceptible)” value ([2]; strain 177581/08, 4 μg/ml) was “S”. For the same compound, the “Activity (resistant/susceptible)” value ([2]; strain 177958/08, 0.25 μg/ml) was “R”, the “Activity (resistant/susceptible)” value ([2]; strain 177958/08, 1 μg/ml) was “S” and the “Activity (resistant/susceptible)” value ([2]; strain 177958/08, 4 μg/ml) was “S”. For the same compound, the “Activity (resistant/susceptible)” value ([2]; strain 178331/08, 0.25 μg/ml) was “R”, the “Activity (resistant/susceptible)” value ([2]; strain 178331/08, 1 μg/ml) was “S” and the “Activity (resistant/susceptible)” value ([2]; strain 178331/08, 4 μg/ml) was “S”. For the same compound, the “Activity (resistant/susceptible)” value ([2]; strain 178557/08, 0.25 μg/ml) was “R”, the “Activity (resistant/susceptible)” value ([2]; strain 178557/08, 1 μg/ml) was “S” and the “Activity (resistant/susceptible)” value ([2]; strain 178557/08, 4 μg/ml) was “S”.
